For 34 compounds, inhibition results are on record in US7550456B2, “Substituted aryl cycloalkanoyl derivatives and methods of their use” (Wyeth, priority 2003, dated 2009).

Each structure is given as a SMILES string. Structures can show the parent of a compound that is named as a salt.

For the experiment, the target named is T1, human hNET (Homo sapiens, UniProt P23975).
T1 construct: expressed in transfected cells; host or cells: MDCK-Net6 (MDCK cells, stably transfected)
T1 sequence (P23975 whole entry): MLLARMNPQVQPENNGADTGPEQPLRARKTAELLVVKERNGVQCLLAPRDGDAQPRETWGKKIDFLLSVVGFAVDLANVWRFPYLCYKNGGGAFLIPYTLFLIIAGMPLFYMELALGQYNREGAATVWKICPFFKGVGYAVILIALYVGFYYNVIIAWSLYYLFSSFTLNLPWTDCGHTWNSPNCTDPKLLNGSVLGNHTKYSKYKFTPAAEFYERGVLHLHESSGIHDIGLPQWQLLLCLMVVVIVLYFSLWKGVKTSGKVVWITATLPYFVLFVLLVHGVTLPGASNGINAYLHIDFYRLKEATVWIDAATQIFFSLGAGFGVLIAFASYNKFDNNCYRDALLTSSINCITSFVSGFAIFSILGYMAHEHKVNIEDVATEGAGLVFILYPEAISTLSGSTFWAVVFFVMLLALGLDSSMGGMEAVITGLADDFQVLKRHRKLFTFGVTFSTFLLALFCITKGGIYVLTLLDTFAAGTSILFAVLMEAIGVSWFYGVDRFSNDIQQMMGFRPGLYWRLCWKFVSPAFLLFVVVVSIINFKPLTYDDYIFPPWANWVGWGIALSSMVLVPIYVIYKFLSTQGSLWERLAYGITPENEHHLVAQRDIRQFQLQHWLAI
The experiment in a line: Norepinephrine (NE) uptake assay in MDCK-Net6 cells. The experiment is classed as cell-based. The note with it: 1 μM test compound, [3H]NE uptake, read-out: % Inhibition @ 1 μM (hNET). The method in brief: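 Radiolabelled NE uptake was counted by scintillation after NaOH lysis, with 1 µM desipramine defining non-specific uptake. EC50 came from a logistic dose-response fit.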
As for `CN1CCN(CC(c2ccc(OCc3ccc(Br)cc3F)c(Cl)c2)C2(O)CCCCC2)CC1` (stereo not shown) [Example 426, 1-[1-{4-[(4-bromo-2-fluorobenzyl)oxy]-3-chlorophenyl}-2-(4-methylpiperazin-1-yl)ethyl]cyclohexanol dihydrochloride], the inhibition at 1 µM was 84%. `OC1(C(CN2CCNCC2)c2ccc(OCc3ccc4ccccc4c3)c(Cl)c2)CCCCC1` (stereo not shown) [Example 427, 1-{1-[3-chloro-4-(2-naphthylmethoxy)phenyl]-2-piperazin-1-ylethyl}cyclohexanol dihydrochloride]: the inhibition at 1 µM was 33%. For `OC1(C(CN2CCNCC2)c2ccc(OCc3ccc4ccccc4c3)cc2)CCCCC1` (stereo not shown) [Example 432, 1-{1-[4-(2-naphthylmethoxy)phenyl]-2-piperazin-1-ylethyl}cyclohexanol], the inhibition at 1 µM is 64%.

Take `CN1CCN(CC(c2ccc(OCc3ccc4ccccc4c3)cc2)C2(O)CCCCC2)CC1` (stereo not shown) [Example 433, 1-{2-(4-methylpiperazin-1-yl)-1-[4-(2-naphthylmethoxy)phenyl]ethyl}cyclohexanol]: the inhibition at 1 µM was found to be 49%. For the compound `OC1(C(CN2CCNCC2)c2ccc(OCc3ccc(Br)cc3F)cc2)CCCCC1` (stereo not shown) [Example 434, 1-(1-{4-[(4-bromo-2-fluorobenzyl)oxy]phenyl}-2-piperazin-1-ylethyl)cyclohexanol], the inhibition at 1 µM was 34%.

On to `CN1CCN(CC(c2ccc(OCc3ccc(Br)cc3F)cc2)C2(O)CCCCC2)CC1` (stereo not shown) [Example 435, 1-[1-{4-[(4-bromo-2-fluorobenzyl)oxy]phenyl}-2-(4-methylpiperazin-1-yl)ethyl]cyclohexanol dihydrochloride], for which the inhibition at 1 µM came to 85%.

Consider `OC1(C(CN2CCNCC2)c2ccc(OCc3ccc(C(F)(F)F)cc3)cc2)CCCCC1` (stereo not shown) [Example 436, 1-[2-piperazin-1-yl-1-(4-{[4-(trifluoromethyl)benzyl]oxy}phenyl)ethyl]cyclohexanol dihydrochloride], for which the inhibition at 1 µM was found to be 63%.

Consider `CN1CCN(CC(c2ccc(OCc3ccc(C(F)(F)F)cc3)cc2)C2(O)CCCCC2)CC1` (stereo not shown) [Example 437, 1-[2-(4-methylpiperazin-1-yl)-1-(4-{[4-(trifluoromethyl)benzyl]oxy}phenyl)ethyl]cyclohexanol dihydrochloride], for which the inhibition at 1 µM was found to be 38%. Consider `OC1(C(CN2CCNCC2)c2ccc(OCc3cccc(C(F)(F)F)c3)cc2)CCCCC1` (stereo not shown) [Example 438, 1-[2-piperazin-1-yl-1-(4-{[3-(trifluoromethyl)benzyl]oxy}phenyl)ethyl]cyclohexanol dihydrochloride], for which the inhibition at 1 µM amounted to 69%. Consider `CN1CCN(CC(c2ccc(OCc3cccc(C(F)(F)F)c3)cc2)C2(O)CCCCC2)CC1` (stereo not shown) [Example 439, 1-[2-(4-methylpiperazin-1-yl)-1-(4-{[3-(trifluoromethyl)benzyl]oxy}phenyl)ethyl]cyclohexanol dihydrochloride], for which the inhibition at 1 µM was 79%.

As for `OC1(C(CN2CCNCC2)c2ccc(OCc3ccccc3C(F)(F)F)cc2)CCCCC1` (stereo not shown) [Example 440, 1-[2-piperazin-1-yl-1-(4-{[2-(trifluoromethyl)benzyl]oxy}phenyl)ethyl]cyclohexanol dihydrochloride], the inhibition at 1 µM came out at 28%.

As for `CN1CCN(CC(c2ccc(OCc3ccccc3C(F)(F)F)cc2)C2(O)CCCCC2)CC1` (stereo not shown) [Example 441, 1-[2-(4-methylpiperazin-1-yl)-1-(4-{[2-(trifluoromethyl)benzyl]oxy}phenyl)ethyl]cyclohexanol dihydrochloride], the inhibition at 1 µM worked out at 33%.

On to `COc1cc(C(CN2CCNCC2)C2(O)CCCCC2)ccc1OCc1ccccc1` (stereo not shown) [Example 442, 1-{1-[4-(benzyloxy)-3-methoxyphenyl]-2-piperazin-1-ylethyl}cyclohexanol dihydrochloride], for which the inhibition at 1 µM turned out to be 57%. With `COc1cc(C(CN2CCN(C)CC2)C2(O)CCCCC2)ccc1OCc1ccccc1` (stereo not shown) [Example 443, 1-[1-[4-(benzyloxy)-3-methoxyphenyl]-2-(4-methylpiperazin-1-yl)ethyl]cyclohexanol dihydrochloride] the figure was 90%; with `COc1cc(C(CN2CCNCC2)C2(O)CCCCC2)ccc1OCc1ccc2ccccc2c1` (stereo not shown) [Example 444, 1-{1-[3-methoxy-4-(2-naphthylmethoxy)phenyl]-2-piperazin-1-ylethyl}cyclohexanol dihydrochloride], 98%; with `COc1cc(C(CN2CCN(C)CC2)C2(O)CCCCC2)ccc1OCc1ccc2ccccc2c1` (stereo not shown) [Example 445, 1-[1-[3-methoxy-4-(2-naphthylmethoxy)phenyl]-2-(4-methylpiperazin-1-yl)ethyl]cyclohexanol dihydrochloride], 22%. In the case of `COc1cc(C(CN2CCNCC2)C2(O)CCCCC2)ccc1OCc1ccc(Br)cc1F` (stereo not shown) [Example 446, 1-(1-{4-[(4-bromo-2-fluorobenzyl)oxy]-3-methoxyphenyl}-2-piperazin-1-ylethyl)cyclohexanol], the inhibition at 1 µM worked out at 69%. With `COc1cc(C(CN2CCN(C)CC2)C2(O)CCCCC2)ccc1OCc1ccc(Br)cc1F` (stereo not shown) [Example 447, 1-[1-{4-[(4-bromo-2-fluorobenzyl)oxy]-3-methoxyphenyl}-2-(4-methylpiperazin-1-yl)ethyl]cyclohexanol] the figure was 97%. Consider `COc1cc(C(CN2CCNCC2)C2(O)CCCCC2)ccc1OCc1ccc(C(F)(F)F)cc1` (stereo not shown) [Example 448, 1-[1-(3-methoxy-4-{[4-(trifluoromethyl)benzyl]oxy}phenyl)-2-piperazin-1-ylethyl]cyclohexanol dihydrochloride], for which the inhibition at 1 µM amounted to 78%.

For the compound `COc1cc(C(CN2CCN(C)CC2)C2(O)CCCCC2)ccc1OCc1ccc(C(F)(F)F)cc1` (stereo not shown) [Example 449, 1-[1-(3-methoxy-4-{[4-(trifluoromethyl)benzyl]oxy}phenyl)-2-(4-methylpiperazin-1-yl)ethyl]cyclohexanol dihydrochloride], the inhibition at 1 µM turned out to be 88%. As to `OC1(C(CN2CCNCC2)c2ccc(OCCc3ccccc3)c(Cl)c2)CCCCC1` (stereo not shown) [Example 452, 1-{1-[3-chloro-4-(2-phenylethoxy)phenyl]-2-piperazin-1-ylethyl}cyclohexanol dihydrochloride], the inhibition at 1 µM was 35%. For `CN1CCN(CC(c2ccc(OCCc3ccccc3)c(Cl)c2)C2(O)CCCCC2)CC1` (stereo not shown) [Example 453, 1-[1-[3-chloro-4-(2-phenylethoxy)phenyl]-2-(4-methylpiperazin-1-yl)ethyl]cyclohexanol dihydrochloride], the inhibition at 1 µM was 82%. As for `COc1cccc(COc2ccc(C(CN3CCNCC3)C3(O)CCCCC3)cc2Cl)c1` (stereo not shown) [Example 454, 1-(1-{3-chloro-4-[(3-methoxybenzyl)oxy]phenyl}-2-piperazin-1-ylethyl)cyclohexanol dihydrochloride], the inhibition at 1 µM is 99%. As for `COc1cccc(COc2ccc(C(CN3CCN(C)CC3)C3(O)CCCCC3)cc2Cl)c1` (stereo not shown) [Example 455, 1-[1-{3-chloro-4-[(3-methoxybenzyl)oxy]phenyl}-2-(4-methylpiperazin-1-yl)ethyl]cyclohexanol dihydrochloride], the inhibition at 1 µM was 99%. `COc1ccccc1COc1ccc(C(CN2CCNCC2)C2(O)CCCCC2)cc1Cl` (stereo not shown) [Example 456, 1-(1-{3-chloro-4-[(2-methoxybenzyl)oxy]phenyl}-2-piperazin-1-ylethyl)cyclohexanol dihydrochloride]: the inhibition at 1 µM was 90%. Next, `COc1ccccc1COc1ccc(C(CN2CCN(C)CC2)C2(O)CCCCC2)cc1Cl` (stereo not shown) [Example 457, 1-[1-{3-chloro-4-[(2-methoxybenzyl)oxy]phenyl}-2-(4-methylpiperazin-1-yl)ethyl]cyclohexanol dihydrochloride]: 77%; `OC1(C(CN2CCNCC2)c2ccc(OCCc3ccccc3)cc2)CCCCC1` (stereo not shown) [Example 459, 1-{1-[4-(2-phenylethoxy)phenyl]-2-piperazin-1-ylethyl}cyclohexanol dihydrochloride]: 58%. On to `CN1CCN(CC(c2ccc(OCCc3ccccc3)cc2)C2(O)CCCCC2)CC1` (stereo not shown) [Example 460, 1-{2-(4-methylpiperazin-1-yl)-1-[4-(2-phenylethoxy)phenyl]ethyl}cyclohexanol dihydrochloride], for which the inhibition at 1 µM was found to be 82%.

For `OC1(C(CN2CCNCC2)c2ccc(OCCc3ccc(F)cc3)cc2)CCCCC1` (stereo not shown) [Example 462, 1-(1-{4-[2-(4-fluorophenyl)ethoxy]phenyl}-2-piperazin-1-ylethyl)cyclohexanol dihydrochloride], the inhibition at 1 µM worked out at 47%. `CN1CCN(CC(c2ccc(OCCc3ccc(F)cc3)cc2)C2(O)CCCCC2)CC1` (stereo not shown) [Example 463, 1-[1-{4-[2-(4-fluorophenyl)ethoxy]phenyl}-2-(4-methylpiperazin-1-yl)ethyl]cyclohexanol dihydrochloride]: the inhibition at 1 µM stood at 69%. On to `OC1(C(CN2CCNCC2)c2ccc(OCCc3cccc4ccccc34)cc2)CCCCC1` (stereo not shown) [Example 464, 1-(1-{4-[2-(1-naphthyl)ethoxy]phenyl}-2-piperazin-1-ylethyl)cyclohexanol dihydrochloride], for which the inhibition at 1 µM is 33%.

For the compound `COc1ccc(CCOc2ccc(C(CN3CCN(C)CC3)C3(O)CCCCC3)cc2)cc1` (stereo not shown) [Example 466, 1-[1-{{4-[2-(4-methoxyphenyl)ethoxy]phenyl}-2-(4-methylpiperazin-1-yl)ethyl]cyclohexanoldihydrochloride], the inhibition at 1 µM came out at 20%. Take `CN1CCN(CC(c2ccc(OCC3CCCCC3)cc2)C2(O)CCCCC2)CC1` (stereo not shown) [Example 468, 1-[1-[4-(cyclohexylmethoxy)phenyl]-2-(4-methylpiperazin-1-yl)ethyl]cyclohexanol dihydrochloride]: the inhibition at 1 µM came to 0%. Next, `C[C@@H](Oc1ccc(C(CN2CCN(C)CC2)C2(O)CCCCC2)cc1)c1ccccc1` (stereo partly drawn) [Example 469, 1-(2-(4-methylpiperazin-1-yl)-1-{4-[(1R)-1-phenylethoxy]phenyl}ethyl)cyclohexanol dihydrochloride]: 12%.
